In this assay the target is TEAD2 (Homo sapiens (Human), UniProt Q15562). The experiment in a line: In vitro palmitoylation (TEAD2 autopalmitoylation, streptavidin blot). Type of assay: biochemical. To be noted: compound at 10 μM. The method in brief:
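Autopalmitoylation read by streptavidin-HRP Western blot after CuSO4/TBTA/TCEP click with 100 μM biotin-azide, 1 h RT, with His-HRP probed separately. Before that, TEAD2 protein (GST or His6, 500 ng) given compound for 15 min then 1 μM alkyne palmitoyl-CoA for 30 min; percent inhibition versus DMSO-treated samples.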

Where “and” joins values, the source holds several entries; their conditions need not be identical. Identical values can stand only once.

TEAD2, sequence (Q15562 whole entry): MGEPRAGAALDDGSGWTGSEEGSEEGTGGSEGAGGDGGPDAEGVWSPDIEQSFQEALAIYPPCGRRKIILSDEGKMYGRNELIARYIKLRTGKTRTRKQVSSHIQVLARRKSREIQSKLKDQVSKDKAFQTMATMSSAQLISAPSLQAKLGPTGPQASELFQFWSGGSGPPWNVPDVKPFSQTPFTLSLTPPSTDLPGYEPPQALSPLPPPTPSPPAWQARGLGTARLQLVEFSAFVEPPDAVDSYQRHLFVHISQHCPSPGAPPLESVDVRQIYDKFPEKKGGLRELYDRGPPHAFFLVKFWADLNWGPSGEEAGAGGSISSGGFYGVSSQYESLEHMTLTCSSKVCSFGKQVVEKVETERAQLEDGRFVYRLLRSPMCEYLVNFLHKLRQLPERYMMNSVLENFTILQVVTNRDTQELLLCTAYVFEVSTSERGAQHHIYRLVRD

Take `O=C(Nc1ccc(C23CC4CC(CC(C4)C2)C3)cc1)c1cccc(Nc2ccccc2C(=O)O)c1` [Compound 214]: where the note is “Table 2”, the “% of inhibition of TEAD2 palmitoylation at 10 μM” value (“% of inhibition … at 10 μM” below) is 73% and testing at 10 µM gave an inhibition of 88%.

In the case of `O=C(O)Cn1ncc2cc(Nc3ccc(C45CC6CC(CC(C6)C4)C5)cc3Cl)ccc21` [Compound 101], the inhibition at 10 µM (Table 2) came to 62%.

With `O=C(O)c1ccccc1NS(=O)(=O)c1ccc(Nc2ccc(C34CC5CC(CC(C5)C3)C4)cc2Cl)cc1` [Compound 223], testing at 10 µM (Table 2) gave an inhibition of 100%.

`O=C(O)c1ccccc1Nc1ccc(Nc2ccc(-c3ccccc3Cl)cc2Cl)cc1` [Compound 58] displayed an inhibition at 10 µM (Table 2) of 60%.

For the compound `O=C(Nc1ccc(Nc2ccc(C34CC5CC(CC(C5)C3)C4)cc2Cl)cc1)[C@H]1CCC[C@H]1C(=O)O` (stereo in doubt) [compound 288], the inhibition at 10 µM (Table 2) is 53%.

In the case of `CCCCN(c1ccccc1)c1ccc(Nc2ccc(Nc3ccccc3C(=O)O)cc2)cc1` [Compound 174], 10 µM produced 85% inhibition (Table 2).

With `COc1ccc(Nc2ccc(F)cc2Oc2ccc(C34CC5CC(C)(CC(C)(C5)C3)C4)cc2Cl)c(C(=O)O)c1` [CP-569], where the note is “Table 3”, testing at 10 µM gave an inhibition of 59%.

`COc1ccc(Nc2ccc(N(C)c3nc(C(F)(F)F)cs3)cc2)c(C(=O)O)c1` [CP-588] had an inhibition at 10 µM (Table 3) of 36%.

In the case of `O=C(O)C1CCNCC1Nc1ccc(Nc2ccc(C34CC5CC(CC(C5)C3)C4)cc2Cl)cc1` (stereo not shown) [Compound 88], 10 µM produced 12% inhibition (Table 2).

Consider `O=C(O)c1cccc(Nc2cc(C(F)(F)F)cc3[nH]c4ccc(C56CC7CC(CC(C7)C5)C6)cc4c23)n1` [Compound 154], for which, for the setting “Table 2”, the “% of inhibition … at 10 μM” value was found to be 43% and 10 µM produced 58% inhibition.

Where the note is “Table 2”, `O=C(O)c1ccncc1Nc1ccc(Nc2ccc(C34CC5CC(CC(C5)C3)C4)cc2Cl)cc1` [Compound 83] had an inhibition at 10 µM of 65%.

With `O=C(O)Cn1ccc2cc(Nc3ccc(C45CC6CC(CC(C6)C4)C5)cc3Cl)ccc21` [Compound 130], the inhibition at 10 µM (Table 2) turned out to be 100%.

Compound `CCOC(=O)c1cccc(Nc2ccc(C(=O)Nc3ccc(C45CC6CC(CC(C6)C4)C5)cc3)cc2)n1` [Compound 16] displayed an inhibition at 10 µM (Table 2) of 0%.

With `O=C(O)c1ccccc1Nc1cccc(Nc2ccc(C34CC5CC(CC(C5)C3)C4)cc2)c1` [Compound 25], the inhibition at 10 µM (Table 2) worked out at 90%.

With `O=C(O)C1CCCCC1Nc1ccc(C23CC4CC(CC(C4)C2)C3)cc1` (stereo not shown) [Compound 66], under “Table 2”, the inhibition at 10 µM was 25%.

Turning to `CC(C)c1ccccc1-c1ccc(Oc2ccc(N(C)c3ccccc3C(=O)O)cc2)c(Cl)c1` [Compound 236], at 10 µM the inhibition (Table 2) was 62%.

As for `CCCCN(c1ccccc1)c1ccc(NC(=O)c2ccc(Nc3ccccc3C(=O)O)cc2)cc1` [Compound 195], the inhibition at 10 µM (Table 2) is 0%.

Consider `CN(c1ccc(Nc2ccccc2C(=O)O)cc1)c1ccc(C23CC4CC(CC(C4)C2)C3)cc1` [Compound 172], for which testing at 10 µM (Table 2) gave an inhibition of 100%.

As to `COCCOc1ccc(Nc2ccc(N(C)c3ccc(C45CC6CC(CC(C6)C4)C5)cc3)cc2)c(C(=O)O)c1` [Compound 269], the inhibition at 10 µM (Table 2) amounted to 100%.

The compound `O=C(O)c1ccccc1Nc1cnc(Oc2ccc(C34CC5CC(CC(C5)C3)C4)cc2Cl)cn1` [compound 440] had an inhibition at 10 µM (Table 2) of 75%.

In the case of `COC(=O)c1ccccc1Nc1ccc(C(=O)Nc2ccc(C34CC5CC(CC(C5)C3)C4)cc2Cl)cc1` [Compound 6], for the setting “Table 2”, the inhibition at 10 µM came to 0%.

In the case of `COc1cccc(N(C)c2ccc(N(C)c3ccc(C45CC6CC(CC(C6)C4)C5)cc3)cc2)c1C(=O)O` [Compound 238], testing at 10 µM (Table 2) gave an inhibition of 100%.

In turn, `O=C(O)c1cccnc1CN1CCN(Cc2ccc(C34CC5CC(CC(C5)C3)C4)cc2Cl)CC1` [Compound 107] displayed an inhibition at 10 µM (Table 2) of 14%.

In turn, `CC(C)(C)OC(=O)NC(Cc1ccc(Nc2ccc(C34CC5CC(CC(C5)C3)C4)cc2Cl)cc1)C(=O)O` (stereo not shown) [Compound 94] had an inhibition at 10 µM (Table 2) of 91%.

For `O=C1CC[n+]2ccccc2N1c1ccc(Nc2ccc(C34CC5CC(CC(C5)C3)C4)cc2Cl)cc1` [Compound 11], the inhibition at 10 µM (Table 2) amounted to 0%.

On to `O=C(N[C@H]1CCC[C@H]1C(=O)O)c1ccc(Nc2ccc(C34CC5CC(CC(C5)C3)C4)cc2Cl)cc1` [Compound 77], for which the inhibition at 10 µM (Table 2) was 52%.

As to `O=C(O)c1ccccc1Nc1ccnc(Nc2ccc(C34CC5CC(CC(C5)C3)C4)cc2Cl)n1` [Compound 62], for the setting “Table 2”, the inhibition at 10 µM was 65%.

For the compound `CN(c1ccc(C23CC4CC(CC(C4)C2)C3)cc1)c1ccc(N(C)c2ccccc2C(=O)O)cn1` [Compound 160], for the setting “Table 2”, the inhibition at 10 µM stood at 84%.

Regarding `CN(c1ccc(N(C)c2ccccc2C(=O)O)cc1)c1cccc(C(=O)NC23CC4CC(CC(C4)C2)C3)c1` [Compound 233], the inhibition at 10 µM (Table 2) was 9%.

The compound `CN(c1cnn(Cc2ccc(C34CC5CC(CC(C5)C3)C4)cc2Cl)c1)c1ncccc1C(=O)O` [Compound 133] registered an inhibition at 10 µM (Table 2) of 93%.

`COc1cccc(Nc2cccc(C(=O)Nc3ccc(C45CC6CC(CC(C6)C4)C5)cc3)c2)c1C(=O)O` [Compound 248] registered an inhibition at 10 µM (Table 2) of 32%.

Turning to `CN(c1ccc(Nc2ccc(C34CC5CC(CC(C5)C3)C4)cc2)cc1)c1ncccc1C(=O)O` [Compound 138], under “Table 2”, the inhibition at 10 µM stood at 24%.

`CN(c1ccc(C2CCCCC2)cc1)c1ccc(Nc2cccc(C(=O)O)n2)cn1` [CP-643] returned an inhibition at 10 µM (Table 3) of 89%.

`O=C(Nc1ccc(C2CCCCC2)cc1)c1cccc(Nc2ccccc2C(=O)O)c1` [CP-664] came in with an inhibition at 10 µM (Table 3) of 50%.

For the compound `COc1ccc(Nc2ccc(N(C)c3ccc(OCC(F)(F)F)cc3)cc2F)c(C(=O)O)c1` [CP-568], under “Table 3”, the inhibition at 10 µM was 46%.

On to `CC(C)c1ccccc1-c1ccc(Nc2ccc(Nc3cccc(C(=O)O)n3)cc2)cc1` [Compound 209], for which, where the note is “Table 2”, at 10 µM the inhibition was 54%.

Where the note is “Table 3”, `Cc1cc(N(C)c2ccc(C3CCCCC3)cc2)ccc1Nc1ccc(OCC(C)(C)C)cc1C(=O)O` [CP-633] had an inhibition at 10 µM of 25%.

`O=C(NC12CC3CC(CC(C3)C1)C2)c1ccc(Nc2ccc(Nc3cccc(C(=O)O)n3)cc2)cc1` [Compound 219] showed an inhibition at 10 µM (Table 2) of 0%.

`Cc1cc(N(C)c2ccc(C3CCCCC3)cc2)ccc1Nc1ccc(CN)cc1C(=O)O` [CP-635] had an inhibition at 10 µM (Table 3) of 27%.

Compound `CNS(=O)(=O)c1ccc(Nc2ccc(N(C)c3ccc(C4CCCCC4)cc3)cc2C)c(C#N)c1` [CP-657] had an inhibition at 10 µM (Table 3) of 18%.

For the compound `O=C(O)C1CCCN(Cc2ccc(Nc3ccc(C45CC6CC(CC(C6)C4)C5)cc3Cl)cc2)C1` (stereo not shown) [Compound 143], for the setting “Table 2”, at 10 µM the inhibition was 22%.

In turn, `COc1ccc(Nc2ccc(N(C)c3ccc(C(F)(F)F)cn3)cc2)c(C(=O)O)c1` [CP-576] gave an inhibition at 10 µM (Table 3) of 42%.

As to `COc1ccc(Nc2ccc(Oc3ccc(S(F)(F)(F)(F)F)cc3Cl)nc2)c(C(=O)O)c1` [CP-615], the inhibition at 10 µM (Table 3) was 82%.

Turning to `Cc1cc(Oc2ccc(C34CC5CC(C)(CC(C)(C5)C3)C4)cc2Cl)ccc1Nc1ccccc1C(=O)O` [CP-561], the inhibition at 10 µM (Table 3) turned out to be 90%.

As for `O=C(Nc1ccc(C23CC4CC(CC(C4)C2)C3)cc1)c1ccc(C(=O)Nc2ccccc2C(=O)O)cc1` [Compound 225], for the setting “Table 2”, testing at 10 µM gave an inhibition of 84%.

`Cc1cc(N(C)c2ccc(C3CCCCC3)cc2)ccc1Nc1ccc(C(F)(F)F)cc1C(=O)O` [CP-579] displayed an inhibition at 10 µM (Table 3) of 61%.

`CN(c1ccc(C23CC4CC(CC(C4)C2)C3)cc1)c1cccc(N(C)c2ncccc2C(=O)O)c1` [Compound 140] returned an inhibition at 10 µM (Table 2) of 99%.

In turn, `O=C(O)c1cccnc1Nc1ccc(S(=O)(=O)Nc2ccc(C34CC5CC(CC(C5)C3)C4)cc2Cl)cc1` [Compound 261] had an inhibition at 10 µM (Table 2) of 98%.

On to `Cc1cc(N(C)c2ccc(OC(F)(F)F)cc2)ccc1Nc1cccc(C(=O)O)n1` [CP-647], for which the inhibition at 10 µM (Table 3) was found to be 87%.

With `O=C(Nc1ccc(C23CC4CC(CC(C4)C2)C3)cc1Cl)c1ccc(Nc2ccccc2C(=O)O)cc1` [Compound 37], 10 µM produced 30% inhibition (Table 2).

`COc1ccc(Nc2ccc(N(C)c3ccc(CN4CCCCC4)cc3)cc2)c(C(=O)O)c1` [CP-567] registered an inhibition at 10 µM (Table 3) of 6%.

Regarding `O=C(O)c1cccc(Nc2cc(Nc3ccc(C4CCCCC4)cc3Cl)cc(C(F)(F)F)c2)c1` [CP-676], where the note is “Table 3”, at 10 µM the inhibition was 97%.

With `Cc1cc(N(C)c2ccc(C3CCCCC3)cc2)ccc1Nc1cccc(C(=O)O)n1` [CP-636], the inhibition at 10 µM (Table 3) is 68%.

In the case of `c1ccc2c(c1)ccn2-c1ccc(Nc2ccc(C34CC5CC(CC(C5)C3)C4)cc2)cc1` [Compound 244], 10 µM produced 8% inhibition (Table 2).

Consider `O=C(CCc1ccc(Nc2ccccc2C(=O)O)cc1)Nc1ccc(C23CC4CC(CC(C4)C2)C3)cc1` [Compound 220], for which at 10 µM the inhibition (Table 2) was 10%.

As for `COc1ccc(Nc2ccc(C3CC3)cc2N(C)c2ccc(C3CCCCC3)cc2)c(C(=O)O)c1` [CP-623], under “Table 3”, the inhibition at 10 µM was determined as 73%.

As to `Cc1cc(N(C)c2ccc(C3CCCCC3)cc2)ccc1Nc1ccc(N2CCOCC2)cc1C(=O)O` [CP-621], the inhibition at 10 µM (Table 3) is 47%.

`C=CC(=O)c1ccccc1Nc1ccc(Nc2ccc(C34CC5CC(CC(C5)C3)C4)cc2)cc1` yielded an inhibition at 10 µM of 5%.

As for `COc1ccc(Nc2ccc(N(C)c3ccc(C4CCC4)cc3)cc2)c(C(=O)O)c1` [CP-556], the inhibition at 10 µM (Table 3) came out at 61%.

For `O=C(Nc1ccc(C23CC4CC(CC(C4)C2)C3)cc1)c1ccc2nc[nH]c2c1`, the inhibition at 10 µM came out at 5%.

`O=C(O)c1ccccc1Nc1cnc(Oc2ccc(C3CCCCC3)cc2Cl)cn1` [CP-559]: at 10 µM the inhibition (Table 3) was 79%.

As for `CNS(=O)(=O)c1cccc(Nc2ccc(Nc3ccc(C45CC6CC(CC(C6)C4)C5)cc3Cl)cc2)n1` [CP-694], testing at 10 µM (Table 3) gave an inhibition of 79%.

Regarding `O=C(O)c1cccnc1N1CCN(Cc2ccc(C34CC5CC(CC(C5)C3)C4)cc2Cl)CC1` [Compound 106], for the setting “Table 2”, the inhibition at 10 µM was determined as 0%.

With `O=C(Nc1ccc(C23CC4CC(CC(C4)C2)C3)cc1)c1ccc(Nc2ccccc2C(=O)O)cc1` [Compound 35], the “% of inhibition … at 10 μM” value (Table 2) is 63% and 86%.

Compound `O=C(O)c1ccccc1C(=O)Nc1ccc(Nc2ccc(C34CC5CC(CC(C5)C3)C4)cc2Cl)cc1` [compound 279] returned an inhibition at 10 µM (Table 2) of 98%.

A word on the inhibition: it is the percentage by which the read-out fell short of the control.

Source of the values: patent publication US12187722B2, “Small molecule inhibitors of TEAD transcription factors” (The General Hospital Corporation, priority 2019, dated 2025).
